Assay results published in a melting point compilation (Tetko et al.; mined from patent text by program, amines drawn as free bases though some values may be those of a salt).

Row | SMILES | melting point [°C]
1 | O=C(O)CCCCCCCn1c(-c2ccccc2)nc(-c2ccccc2Cl)c1-c1ccccc1Cl | 198
2 | COc1ccc(-c2ccc(C3=NOC(CNC(C)=O)C3)cc2)ccc1=O (centres undefined) | 104 to 105
3 | CC(=O)N[C@H]1C[C@H](C)N(C(=O)OC(C)(C)C)C1 | 108 to 110
4 | COC(=O)c1ccccc1S(=O)(=O)NC(=O)Nc1cc(C)nc(C)n1 | 125 to 127
5 | O=C(O)C1Cc2c(cccc2-c2ccccc2)CN1C(=O)C(c1ccccc1)c1ccccc1 (centres undefined) | 216 to 221
6 | CC(C)(C)OC(=O)C(N)CCNC(=O)c1ccc2c(c1)C(=O)c1ccccc1C2=O (centres undefined) | 173 to 175
7 | COCCc1nc2c(N)nc3ccccc3c2n1CCCNS(=O)(=O)c1ccccc1 | 149 to 151
8 | CCS(=O)(=O)Nc1cc(-n2c(=O)cc(C(F)(F)F)n(N)c2=O)c(F)cc1C#N | 190
9 | O=S(=O)(NCc1ccnc2c(Cl)cccc12)c1ccc(Br)cc1 | 185
10 | CC(C)=C(C)CCC(C)C1CCC2(C)C3CCC4C(C)(C)C(O)CCC45CC35CCC12C (centres undefined) | 165 to 166
11 | COc1ccccc1NC(=O)Nc1nc(NCc2cccs2)nc(N(CCC(=O)O)Cc2cccc(C)c2)n1 | 89 to 95
12 | Cc1ncc2n1-c1ccc(C#N)cc1C(c1ccccc1F)=NC2 | 198 to 203
13 | CCOC(=O)CNc1c([N+](=O)[O-])cc([N+](=O)[O-])c2ccccc12 | > 305
14 | O=C(O)CC(Br)C(Br)c1ccc(Cl)cc1Cl (centres undefined) | 184 to 185
15 | CCOC(=O)C(O)=CC(=O)c1c[nH]c2ccccc12 | > 300
16 | Cc1cc(Cn2nnc(C(N)=O)c2N)cc(Cl)c1C(=O)c1ccc(C(F)(F)F)cc1 | 201 to 202
17 | Cc1ccc(-c2nc(C)nn2-c2ccc(S(N)(=O)=O)cc2)cc1 | 248 to 249
18 | CC(=O)N(C)c1cccc(OC(CCc2ccc(Cl)cc2)Cn2ccnc2)c1 (centres undefined) | 229 to 231
19 | Nc1nc2c(c(Nc3cccc(F)c3)n1)-c1ccccc1C2 | 199 to 200
20 | CCOC(=NC(=O)Nc1ccc(OC(F)(F)F)cc1)c1c(F)cccc1F | 98 to 100
21 | CCCNC(=NC#N)Nc1cccnc1 | 164 to 165
22 | COc1c(F)cc2c(O)c(C(=O)NCc3ccc(Cl)cc3)cnc2c1OC | 228 to 229
23 | CCCCCCCCCCc1c(C)nc2ccccn2c1=O | 66 to 67.5
24 | CCCc1c(OCC2COc3cc(CC(=O)OC)ccc3O2)ccc(C(C)=O)c1O (centres undefined) | 72 to 75

Row | SMILES | melting point [°C]
25 | Cn1ccnc1Sc1ccc(Nc2c(C#N)cnc3cc(-c4ccc(N5CCSCC5)nc4)ccc23)cc1Cl | > 260
26 | CCOCc1nc2c(c(C)c(C)n3nnnc23)n1CCNC(=O)OC(C)(C)C | 197 to 199
27 | CC(C)(C)c1ccc2c(c1)ncn2-c1cccc(Br)n1 | 98 to 100
28 | Fc1ccc(-c2cc3ncnc(Nc4ccc5[nH]ccc5c4)c3s2)cc1Cl | 175 to 183
29 | CC(C)(C)OC(=O)C(C(=O)O)c1cccc(N)c1 (centres undefined) | 105
30 | O=C(Nc1cccc2cc(CO)cnc12)c1c(Cl)cccc1Cl | 224 to 226
31 | CC(c1oc2ccccc2c(=O)c1-c1cccc(F)c1)n1ccc2c(Cl)ncnc21 (centres undefined) | 71 to 75
32 | CC(=O)Nc1ccc(C)cc1Oc1c(NCc2ccccc2)cc(C(=O)O)cc1S(N)(=O)=O | 203
33 | CCOC(=O)c1c(CC)ncnc1NCCc1ccc(CCOS(C)(=O)=O)cc1 | 84 to 86
34 | CCn1c(=O)c2ccc(C(=O)O)cc2n(Cc2ccc(Cl)cc2Cl)c1=O | 238 to 240
35 | CCOC(=O)c1cc(=NS(=O)(=O)c2ccccc2)c2c(Cl)cc(Cl)cc2[nH]1 | 184 to 185
36 | CCC(=O)SCC(Cc1ccccc1)C(=O)Nc1cccc(C(=O)O)c1C (centres undefined) | 163 to 165
37 | O=C1NC(=O)c2c1cc1ccc3c(c1c2-c1ccc(F)cc1)OCO3 | 269 to 271
38 | Cn1cc(C(N)=O)c([N+](=O)[O-])n1 | 190 to 192
39 | CCc1cc(Cl)c(C)c(Oc2c(C)cc(C)cc2C)n1 | 42 to 44
40 | COc1ccc(CCn2ccc3ccc(-c4cccc(C(=O)NCCC#N)c4)nc32)cc1OC | 138 to 139
41 | Cc1oc(-c2ccco2)nc1COc1cc(CCl)ccn1 | 107 to 108
42 | COC(=O)C[C@H](Cc1ccc(-c2ccccc2)cc1)NC(=O)OC(C)(C)C | 86 to 87
43 | N#CC1CN1Cc1ccccc1 (centres undefined) | 81 to 83
44 | O=S(=O)(c1ccc(Oc2ccccc2)cc1)N1CC1 | 136 to 138
45 | O=c1c2ccccc2cc(Cl)n1-c1ccc(Cl)cc1 | 125 to 127
46 | CCOC(=O)c1cn(Cc2ccc(Oc3ccccc3)cc2)nc1OCc1ccc(OCc2nc(-c3ccccc3)oc2C)c(OC)c1 | 127 to 128
47 | CCCCCC(=O)CCCCc1ccc(O)c(O)c1 | 76 to 78
48 | COC(=O)Cc1ccc(-c2nc3ccccc3o2)cc1 | 109 to 112

Further lines, results first:

Row | melting point [°C] | SMILES
49 | 86 to 88 | CCCCCC(Oc1ccc(C2=CCCCC2)cc1)C(=O)NC(C)C (centres undefined)
50 | 108 | Cc1cc(-n2ccnc2)c2cccc(OCc3c(Cl)ccc(S(=O)(=O)N4CCC[C@H]4C(=O)NCCN4CCCCC4)c3Cl)c2n1
51 | 109 to 112 | O=C(O)C(=O)N1CCC(Cc2ccccc2)CC1
52 | 200 to 203 | COc1cccc(N2CC(=O)N(c3ccc(S(N)(=O)=O)cc3Cl)C2)c1
53 | 117 to 118 | CC(Oc1ccc(-c2ccc(CC(=O)NC3CC3)cc2)cc1)C(O)CCc1cccnc1 (centres undefined)
54 | 186 | COc1cc(N=C(N)c2cccs2)ccc1N1CCN(C(=O)NCCCCC2CCSS2)CC1 (centres undefined)
55 | 132 to 134 | Cc1ccc(-c2cccc(/C=C/C(=O)Nc3ccc(CN4CCCC(O)C4)cc3)c2)cc1 (centres undefined)
56 | 119 to 121 | N#CCCCCn1c(=O)c2ccccc2n(CCCCN2CCC(OC(c3ccccc3)c3ccccc3)CC2)c1=O
57 | 201 to 203 | Cc1nn(-c2cc3nc(S)sc3cc2Cl)c(=O)n1C(F)F
58 | 265 to 266 | O=C1C=CC2=CN=C(C3CCCCC3)N3CCC(=C23)N1
59 | 125 to 127 | Nc1nc(SCC2CC2)c2ncn(C3C=CC(CO)C3)c2n1 (centres undefined)
60 | 110 to 111 | CN1c2ccc(CC(=O)O)cc2CCC1c1ccccc1 (centres undefined)
61 | 258 to 260 | Cc1cc(-c2nc[nH]n2)ccc1-c1cnc2[nH]c(=O)n(CCC3CCOCC3)c2n1
62 | 244 to 246 | Cc1[nH]cnc1CC1CCc2c(C)c3cc(Cl)ccc3n2C1=O (centres undefined)
63 | 88 to 90 | O=C(O)C(Cc1ccc(OCCn2c(=O)sc3cc(C(=NO)C4CC4)ccc32)cc1)OCC(F)(F)F (centres undefined)
64 | 133 to 137 | CC(=O)N1CCN(c2ccc([N+](=O)[O-])c(C)c2)CC1
65 | 134 to 137 | CC(COc1ccccc1)C1CC=C2C3=C(CCC21C)C1(C)CCC(O)C(C)(C)C1CC3 (centres undefined)
66 | 142 to 144 | CCCc1nc2c(N)nc3cc(OCCCN4CCCS4(=O)=O)ccc3c2n1CC(C)C
67 | 138 to 140 | CCOC(=O)N1CCC(Nc2nc3ccccc3n2Cc2ccc(CO)o2)CC1
68 | 244 to 246 | O=C(Nc1cccc(CN2C(=O)[C@H]3CCC[C@H]3N(C(=O)CN3C(=O)c4ccccc4C3=O)c3ccccc32)c1)c1ccccc1 (relative stereo)
69 | 180 to 187 | CN1C(=O)c2cccc(SCc3ccccc3)c2C1=O
